{"source": "patent US20120315624A1", "about": "“Using LNA Flow-Fish to Quantitatively Monitor Viral Infections in Infected Cells and Test the Efficacy of Antiviral Medications” (priority 2011, published 2012)", "key": {"Sindbis virus (SV) [1]": {"test_system": "Sindbis virus (SV)", "test": "LNA flow-FISH of Sindbis virus RNA in infected cells with and without antiviral", "assay_type": "cell-based", "description": "Cells were infected with the virus of interest and harvested at various timepoints during infection. Cells were harvested and fixed with 4% paraformaldehye and 5% acetic acid in phosphate-buffered saline (PBS) for 10 min at room temperature. After fixation, the cells were washed twice in PBS and stored at 4° C. until use.\nA control oligonucleotide and a specific biotinylated LNA-modified DNA oligonucleotide were used for the quantification of SV RNA. The sequences of the probes along with other relevant details are found in reference 30. The control probe is a nonspecific 22-mer oligonucleotide (nonspecific LNA) lacking complementarity to cellular nucleic acids and having a Tm of 75° C. The specific LNA probe (SV LNA), complementary to the SV RNA portion encoding the structural proteins, was also a 22-mer with a Tm of 76° C. Each had approximately one-third locked nucleic acid content.\nWhen ready to detect the virus present in the cells at various timepoints, the cells were permeabilized with 0.1 μg/mL Proteinase K in TE buffer (pH 8.0) for 30 min at 37° C. The cells were then washed twice with PBS. A pre-hybridization step was then carried out under the same conditions as the hybridization, but without LNA probe. After pre-hybridization, a solution of 0.1× saline-sodium citrate (SSC) buffer was added followed by centrifugation and removal of the supernatant. […]\nTo use the LNA flow-FISH method to study the efficacy of antiviral medication, before, during, or after infection, cells were treated with an antiviral compound and left for various amounts of time. […] The change in viral nucleic acid with antiviral treatment can be quantified by taking the mean fluorescence intensity (MFI) or by examining the percent of infected cells compared to uninfected cells.\n(§1) As an example, Sindbis virus (SV) was used along with Ribavirin (Rbv), an antiviral, to test the LNA flow-FISH method for studying the action and efficacy of antiviral medications. […] Samples infected with SV with and without Rbv were analyzed by LNA flow-FISH."}, "Sindbis virus (SV) [2]": {"test_system": "Sindbis virus (SV)", "test": "EGFP signal of the recombinant Sindbis virus measured by flow cytometry", "assay_type": "cell-based", "settings": "SV-infected cells, 6-h incubation with Rbv, FIG. 4", "description": "Sindbis virus (SV) was used to test the LNA flow-FISH method for the quantitative monitoring of a viral infection in cells. After infecting cells with SV, cells were collected at different timepoints and their mean fluorescence intensity (MFI) was measured using flow cytometry. The LNA flow-FISH technique was directly compared with a genetic recombination method of measuring viral infection—this was possible because the SV strain has an enhanced green fluorescent protein (eGFP) construct incorporated into the viral RNA. […] In addition, lysed cells were used to compare the LNA flow-FISH results with QRT-PCR.\nTo use the LNA flow-FISH method to study the efficacy of antiviral medication, before, during, or after infection, cells were treated with an antiviral compound and left for various amounts of time. The LNA flow-FISH method is then used as described above. The change in viral nucleic acid with antiviral treatment can be quantified by taking the mean fluorescence intensity (MFI) or by examining the percent of infected cells compared to uninfected cells.\nas §1"}, "[3]": {"test_system": "many DNA and RNA viruses including Sindbis", "settings": "general statement on the nucleoside analog; cited from earlier work"}}, "data": [{"smiles": "NC(=O)c1ncn([C@@H]2O[C@H](CO)[C@@H](O)[C@H]2O)n1", "note": "[Rbv, Ribavirin]", "values": [{"measurement": "viral replication (SV RNA by LNA flow-FISH)", "setting": "Sindbis virus (SV) [1]; 6-h incubation with Rbv, FIG. 4", "value": "reduction in viral replication"}, {"measurement": "mean fluorescence intensity (MFI) of samples with Rbv versus samples without antiviral", "setting": "Sindbis virus (SV) [1]; 6 h, SV LNA flow-FISH and EGFP, FIG. 4", "value": "drastically lower"}, {"measurement": "uninfected cells in the population when Rbv present", "setting": "Sindbis virus (SV) [1]; 6 h with Rbv", "value": "no uninfected cells were observed"}, {"measurement": "viral expression (EGFP)", "setting": "Sindbis virus (SV) [2]", "value": "reduction"}, {"measurement": "replication of viruses", "setting": "[3]", "value": "inhibits the replication of many DNA and RNA viruses including Sindbis"}]}]}
